Measured values: patent US10681909B2, “Herbicidal triazoles” (FMC Corporation, priority 2014, dated 2020)

What was measured:
crabgrass, large = experiment: Test C preemergence; type: in vivo, Digitaria sanguinalis; conditions: for Plant response rating (scale of 0 to 100 where 0 is no effect and 100 is complete control): Crabgrass, Large, preemergence; for Crabgrass, Large plant response rating (0 to 100): Preemergence, visual rating after 13 to 15 d
Description: (§1) Seeds of plant species selected from blackgrass (Alopecurus myosuroides), ryegrass, Italian (Italian ryegrass, Lolium multiflorum), wheat (winter wheat, Triticum aestivum), galium (catchweed bedstraw, Galium aparine), corn (Zea mays), crabgrass, large (large crabgrass, Digitaria sanguinalis), foxtail, giant, (giant foxtail, Setaria faberii), johnsongrass (Sorghum halepense), lambsquarters (Chenopodium album), morningglory (Ipomoea coccinea), nutsedge, yellow (yellow nutsedge, Cyperus esculentus), pigweed (Amaranthus retroflexus), ragweed (common ragweed, Ambrosia elatior), soybean (Glycine max), barnyardgrass (Echinochloa crus-galli), oilseed rape (Brassica napus), waterhemp (common waterhemp, Amaranthus rudis), and velvetleaf (Abutilon theophrasti) were planted into a blend of loam soil and sand and treated preemergence with test chemicals formulated in a non-phytotoxic solvent mixture which included a surfactant. At the same time, plants selected from these crop and weed species and also chickweed (common chickweed, Stellaria media), oat, wild (wild oat, Avena fatua), and kochia (Kochia scoparia), were planted in pots containing Sunshine Redi-Earth® planting medium comprising spaghnum peat moss, vermiculite, starter nutrients and dolomitic limestone and treated with postemergence applications of test chemicals formulated in the same manner. Plants ranged in height from 2 to 18 cm (1- to 4-leaf stage) for postemergence treatments. […] A dash (-) response means no test result.

lambsquarters = experiment: Test C preemergence; type: in vivo, Chenopodium album; conditions: for Plant response rating (scale of 0 to 100 where 0 is no effect and 100 is complete control): Lambsquarters, preemergence; for Lambsquarters plant response rating (0 to 100): Preemergence, visual rating after 13 to 15 d
Description: as §1

morningglory = experiment: Test C preemergence; type: in vivo, Ipomoea coccinea; conditions: for Plant response rating (scale of 0 to 100 where 0 is no effect and 100 is complete control): Morningglory, preemergence; for Morningglory plant response rating (0 to 100): Preemergence, visual rating after 13 to 15 d
Description: as §1

barnyardgrass = experiment: Test C preemergence; type: in vivo, Echinochloa crus-galli; conditions: for Plant response rating (scale of 0 to 100 where 0 is no effect and 100 is complete control): Barnyardgrass, preemergence; for Barnyardgrass plant response rating (0 to 100): Preemergence, visual rating after 13 to 15 d
Description: as §1

velvetleaf = experiment: Test C preemergence; type: in vivo, Abutilon theophrasti; conditions: for Velvetleaf plant response rating (0 to 100): Preemergence, visual rating after 13 to 15 d; for Plant response rating (scale of 0 to 100 where 0 is no effect and 100 is complete control): Velvetleaf, preemergence, 250 g ai/ha
Description: as §1

foxtail, green = experiment: Test D preemergence; type: in vivo, Setaria viridis; conditions: for Plant response rating (0 to 100), Foxtail, Green: 16 g ai/ha, 0 is no effect, 100 is complete control; for Plant response rating: Foxtail, Green: scale 0 to 100
Description: (§2) Seeds of plant species selected from bluegrass (annual bluegrass, Poa annua), blackgrass (Alopecurus myosuroides), canarygrass (Phalaris minor), chickweed (common chickweed, Stellaria media), galium (catchweed bedstraw, Galium aparine), bromegrass, down (downy bromegrass, Bromus tectorum), Russian thistle (Salsola kali), field poppy (Papaver rhoeas), field violet (Viola arvensis), foxtail, green (green foxtail, Setaria viridis), deadnettle (henbit deadnettle, Lamium amplexicaule), ryegrass, Ital. (Italian ryegrass, Lolium multiflorum), kochia (Kochia scoparia), lambsquarters (Chenopodium album), oilseed rape (Brassica napus), pigweed (Amaranthus retroflexus), chamomile (scentless chamomile, Matricaria inodora), speedwell (bird's-eye speedwell, Veronica persica), barley, spring (spring barley, Hordeum vulgare), wheat, spring (spring wheat, Triticum aestivum), buckwheat, wild (wild buckwheat, Polygonum convolvulus), wild mustard (Sinapis arvensis), oat, wild (wild oat, Avena fatua), radish, wild (wild radish, Raphanus raphanistrum), […]), barley, winter (winter barley, Hordeum vulgare), and wheat, winter (winter wheat, Triticum aestivum) were planted into a silt loam soil and treated preemergence with test chemicals formulated in a non-phytotoxic solvent mixture which included a surfactant. At the same time, these species were planted in pots containing Sunshine Redi-Earth® planting medium comprising spaghnum peat moss, vermiculite, starter nutrients and dolomitic limestone and treated with postemergence applications of the test chemicals formulated in the same manner. Plants ranged in height from 2 to 18 cm (1- to 4-leaf stage). Treated plants and controls were maintained in a controlled growth environment for 14 to 21 d after which time all species were compared to controls and visually evaluated. […] A dash (-) response means no test result.

field poppy = experiment: Test D postemergence; type: in vivo, Papaver rhoeas; conditions: scale 0 to 100
Description: as §2

kochia = experiment: Test D postemergence; type: in vivo, Kochia scoparia; conditions: scale 0 to 100
Description: as §2

oilseed rape = experiment: Test D postemergence; type: in vivo, Brassica napus; conditions: scale 0 to 100
Description: as §2

Compound | Plant response rating (scale of 0 to 100 where 0 is no effect and 100 is complete control) (crabgrass, large; 125 g ai/ha) | Plant response rating (scale of 0 to 100 where 0 is no effect and 100 is complete control) (crabgrass, large; 250 g ai/ha) | Crabgrass, Large plant response rating (0 to 100) (crabgrass, large; 31 g ai/ha) | Crabgrass, Large plant response rating (0 to 100) (crabgrass, large; 62 g ai/ha) | Plant response rating (scale of 0 to 100 where 0 is no effect and 100 is complete control) (lambsquarters; 125 g ai/ha) | Plant response rating (scale of 0 to 100 where 0 is no effect and 100 is complete control) (lambsquarters; 250 g ai/ha) | Lambsquarters plant response rating (0 to 100) (lambsquarters; 31 g ai/ha) | Lambsquarters plant response rating (0 to 100) (lambsquarters; 62 g ai/ha) | Plant response rating (scale of 0 to 100 where 0 is no effect and 100 is complete control) (morningglory; 125 g ai/ha) | Plant response rating (scale of 0 to 100 where 0 is no effect and 100 is complete control) (morningglory; 250 g ai/ha) | Morningglory plant response rating (0 to 100) (morningglory; 31 g ai/ha) | Morningglory plant response rating (0 to 100) (morningglory; 62 g ai/ha) | Plant response rating (scale of 0 to 100 where 0 is no effect and 100 is complete control) (barnyardgrass; 125 g ai/ha) | Plant response rating (scale of 0 to 100 where 0 is no effect and 100 is complete control) (barnyardgrass; 250 g ai/ha) | Barnyardgrass plant response rating (0 to 100) (barnyardgrass; 31 g ai/ha) | Barnyardgrass plant response rating (0 to 100) (barnyardgrass; 62 g ai/ha) | Velvetleaf plant response rating (0 to 100) (velvetleaf; 31 g ai/ha) | Velvetleaf plant response rating (0 to 100) (velvetleaf; 62 g ai/ha) | Plant response rating (scale of 0 to 100 where 0 is no effect and 100 is complete control) (velvetleaf) | Plant response rating (0 to 100), Foxtail, Green (foxtail, green) | other results
FC(F)(F)COc1nc(-c2ccccc2)nn1Cc1ccnc(C(F)(F)F)c1 [Compound 24] | 100 | 100 | 98 | 98 | 85 | 85 | 60 | 75 | 35 | 40 | 10 | 30 | 80 | 85 | 10 | 45 | 30 | 45 | 60 | 75 | Plant response rating: Foxtail, Green (foxtail, green; 62 g ai/ha): 98; Plant response rating: Foxtail, Green (foxtail, green; 125 g ai/ha): 100; Plant response rating: Field Poppy (field poppy; 16 g ai/ha): 60; Plant response rating: Field Poppy (field poppy; 31 g ai/ha): 75; Plant response rating: Field Poppy (field poppy; 62 g ai/ha): 80; Plant response rating: Field Poppy (field poppy; 125 g ai/ha): 100; Plant response rating: Kochia (kochia; 16 g ai/ha): 85; Plant response rating: Kochia (kochia; 31 g ai/ha): 90; Plant response rating: Kochia (kochia; 62 g ai/ha): 90; Plant response rating: Kochia (kochia; 125 g ai/ha): 90; Plant response rating: Oilseed Rape (oilseed rape; 16 g ai/ha): 65; Plant response rating: Oilseed Rape (oilseed rape; 31 g ai/ha): 75; Plant response rating: Oilseed Rape (oilseed rape; 62 g ai/ha): 80; Plant response rating: Oilseed Rape (oilseed rape; 125 g ai/ha): 85
CCOc1nc(-c2ccccc2)nn1Cc1ccnc(C(F)(F)F)c1 [Compound 27] | 100 | 100 | 100 | 100 | 98 | 100 | 90 | 98 | 100 | 95 | 20 | 80 | 100 | 100 | 70 | 90 | 10 | 70 | 100 | 95 | Plant response rating: Foxtail, Green (foxtail, green; 62 g ai/ha): 100; Plant response rating: Foxtail, Green (foxtail, green; 125 g ai/ha): 100; Plant response rating: Field Poppy (field poppy; 16 g ai/ha): 75; Plant response rating: Field Poppy (field poppy; 31 g ai/ha): 80; Plant response rating: Field Poppy (field poppy; 62 g ai/ha): 85; Plant response rating: Field Poppy (field poppy; 125 g ai/ha): 100; Plant response rating: Kochia (kochia; 16 g ai/ha): 85; Plant response rating: Kochia (kochia; 31 g ai/ha): 95; Plant response rating: Kochia (kochia; 62 g ai/ha): 95; Plant response rating: Kochia (kochia; 125 g ai/ha): 100; Plant response rating: Oilseed Rape (oilseed rape; 16 g ai/ha): 80; Plant response rating: Oilseed Rape (oilseed rape; 31 g ai/ha): 85; Plant response rating: Oilseed Rape (oilseed rape; 62 g ai/ha): 90; Plant response rating: Oilseed Rape (oilseed rape; 125 g ai/ha): 100
